Entries after “also recorded” stand apart in the source; their conditions may differ.
Experiments:
[1] = tested on: S. mutans UA159 biofilms; test: Fluorescence microscopy of S. mutans UA159 biofilms (Syto-9, Cascade Blue-dextran, propidium iodide); assay type: cell-based, Streptococcus mutans; details: 16 h
Method: FIGS. 1.6A-E illustrate the biofilm inhibitory activities of compound HA5. FIG. 1.6A illustrates that S. mutans UA159 were co-incubated with HA5 at various concentrations and biofilm formation was measured at OD562 using the crystal violet protocol. FIG. 1.6B illustrates Gtfs precipitated from S. mutans culture were co-incubated with HA5 at various concentrations and the glucan production was quantified using cascade blue staining and subsequent image processing with ImageJ. FIG. 1.6C illustrates representative fluorescence microscopy images of UA159 biofilms after 16 h of treatment with various concentrations of HA5. Bacterial cells were stained with Syto-9 (green, panel I); glucans were stained with Cascade Blue-dextran conjugated dye (blue, panel II); eDNA was stained with propidium iodide (red, panel III) and a merged image of all three staining images (panel IV). FIG. 1.6D illustrates S. mutans UA159, S. gordonii DL1 and S. sanguinis SK36 were co-incubated with HA5 at 50 μM and 100 μM and their growth were measured at OD470. FIG. 1.6E illustrates the chemical structure of HA5. Each of the biofilm, glucan and growth assays were conducted in triplicate and statistical significance was tested with one-way ANOVA. p<0.0001. […]
HA5 inhibits S. mutans UA159 biofilms, glucan production and eDNA levels. The antibiofilm activities of HA5 were further investigated by fluorescence microscopy imaging. […] In addition, propidium iodide was used to determine the presence of extracellular DNA (eDNA) in S. mutans biofilms. […] These findings reaffirm that HA5 inhibited S. mutans biofilms by preventing the synthesis of glucans and minimizing the presence of eDNA, two integral biofilm matrix elements crucial for S. mutans biofilm formation.
In addition, propidium iodide was used to determine the presence of extracellular DNA (eDNA) in S. mutans biofilms. […] These findings reaffirm that compound HA6 inhibited S. mutans biofilms by preventing the synthesis of glucans and minimizing the presence of eDNA, two integral biofilm matrix elements crucial for S. mutans biofilm formation.
Prior to in vivo evaluations, the biofilm inhibitory activities of PEHA5 were investigated. […] In addition, propidium iodide was used to determine the presence of eDNA in S. mutans biofilms. […] The effects of unloaded polymersome vesicles on S. mutans biofilm were compared with the control (1% DMSO) and the biofilm inhibitory activities of PEHA5 and HA5 at a single dose 50 μM concentration. […] In addition, the effect of PEHA5 on the planktonic growth of two commensal Streptococci, S. gordonii and S. Sanguinis were compared with the control (1% DMSO) and HA5 at a single treatment dose of 50 μM.
The biofilm inhibitory activities of PEHA6 were investigated. […] In addition, propidium iodide was used to determine the presence of eDNA in S. mutans biofilms. […] The effects of PEHA6 on S. mutans biofilm were compared with the control (1% DMSO) and the biofilm inhibitory activities of HA5 and HA6 side by side at a single dose, 50 μM concentration. […] In addition, the effect of PEHA6 on the planktonic growth of S. mutans was compared with HA5, HA6 at 50 μM.

[2] = tested on: S. sanguinis SK36; test: Planktonic growth, S. sanguinis SK36 (OD470); assay type: cell-based, Streptococcus sanguinis
Method: The bacterial strains, S. mutans UA159, S. gordonii DL1, and S. sanguinis SK36 were inoculated statically at 37° C. under 5% CO2 in Todd Hewitt Broth (THB) for 24 h. The cultures were then diluted with fresh THB (1:5) and reinoculated until optical density at 470 nm (OD470) reached 1. The optical density was read using BioTek 800TS microplate reader at 470 nm for bacterial growth and 562 nm for biofilm stained with crystal violet. Data was plotted in Graphpad Prism9.
(§1) S. mutans, S. gordonii, and S. sanguinis growth assays. Effects of compounds on S. mutans and commensal bacterial growth were evaluated using the growth assay as described^69. S. mutans UA159, S. gordonii DL1, S. sanguinis SK36, cultures were grown for 24 h under 5% CO2 at 37° C. These cultures were then reinoculated with fresh THB (1:5) until OD470=1 when the bacteria were ready to be used. Different concentrations of the inhibitor were assayed in chemically defined media (CDM) with 1% of the bacteria, 1% sucrose and 1% DMSO in 96 well plates. The 96 well plates were incubated under 5% CO2 at 37° C. for 16 h. Growth of the bacteria was read after 16 h at OD470. Each assay was carried out at least in triplicate.
All bacterial strains (S. mutans UA159, S. gordonii DL1, and S. sanguinis SK36) were inoculated statically at 37° C. under 5% CO2 environment in Todd Hewitt Broth (THB) for 24 h^[61]. The cultures were then diluted with fresh THB (1:5) and reinoculated until the optical density at 470 nm reaches 1. The optical density was read using BioTek 800 TS absorbance reader at 470 nm for bacterial growth and 562 nm for biofilm stained with crystal violet. Data was plotted in Prism 10.0.2.
as §1, with “Effects” for “S. mutans, S. gordonii, and S. sanguinis growth assays. Effects”, “PEHA5, PEHA6, HA5 or HA6” for “compounds”, “described^[62].” for “described^69.”, “PEHA5, PEHA6, HA5 or HA6” for “inhibitor”, “CDM” for “chemically defined media (CDM)”

| SMILES | Syto-9 stained bacterial cells within biofilms ([1]; 5 μM) | eDNA (propidium iodide) ([1]; 5 μM) | glucans (Cascade Blue-dextran) ([1]; 5 μM) | Syto-9 stained bacterial cells within biofilms ([1]; 50 μM) | eDNA (propidium iodide) ([1]; 50 μM) | glucans (Cascade Blue-dextran) ([1]; 50 μM) | planktonic growth of S. sanguinis ([2]; 25 μM) | growth of S. sanguinis ([2]; 50 μM and 100 μM (100 μM)) | growth of S. sanguinis ([2]; at biofilm inhibiting doses) | Syto-9 stained bacterial cells within biofilms ([1]; 15 μM) | eDNA (propidium iodide) ([1]; 15 μM) | glucans (Cascade Blue-dextran) ([1]; 15 μM) | Syto-9 stained bacterial cells within biofilms ([1]; 30 μM) | eDNA (propidium iodide) ([1]; 30 μM) | glucans (Cascade Blue-dextran) ([1]; 30 μM) | growth of S. sanguinis ([2]; 25 μM and 50 μM) |
| --- | --- | --- | --- | --- | --- | --- | --- | --- | --- | --- | --- | --- | --- | --- | --- | --- |
| O=C1/C(=C/c2cc(O)c(O)cc2O)Oc2ccccc21 [HA5, 2-[(2′,4′,5′-Trihydroxyphenyl)methylidene]-2,3-dihydro-1-benzofuran-3-one] | significant reduction in biofilms | noticeable reduction of eDNA | significantly reduced | complete inhibition | almost complete absence of eDNA | no glucan formation was evident | did not affect the planktonic growth | did not inhibit the growth; also recorded: does not inhibit the growth | without affecting the growth |  |  |  |  |  |  |  |
| O=C1/C(=C/c2cc(O)c(O)c(O)c2)Oc2ccccc21 [HA6, 2-[(3′,4′,5′-Trihydroxyphenyl)methylidene]-2,3-dihydro-1-benzofuran-3-one] |  |  |  |  |  |  |  |  | without affecting the growth | significant reduction in biofilms | noticeable reduction of eDNA | significantly reduced | complete inhibition | almost complete absence of eDNA | no glucan formation was evident | did not inhibit the growth |

Reference: patent US20260315431A1, “NANOMATERIAL ENCAPSULATED BIOFILM INHIBITORS FOR DENTAL CARIES TREATMENT” (THE UAB RESEARCH FOUNDATION, priority 2023, published 2026)
